Data as given in ChEMBL document CHEMBL4312022, “Design, synthesis, and biological evaluation of ligustrazine - betulin amino-acid/dipeptide derivatives as anti-tumor agents” (Eur J Med Chem, 2020).

Experiments:
HT-29 = experiment: Antiproliferative activity against human HT-29 cells assessed as reduction in cell viability after 72 hrs by MTT assay; format: functional, cell-based; conditions: HT-29, 72 h
HepG2 = experiment: Antiproliferative activity against human HepG2 cells assessed as reduction in cell viability after 72 hrs by MTT assay; format: functional, cell-based; conditions: HepG2, 72 h
MDCK = experiment: Cytotoxicity against MDCK cells assessed as reduction in cell viability after 72 hrs by MTT assay; format: cell-based; conditions: Canis lupus familiaris
HeLa = experiment: Antiproliferative activity against human HeLa cells assessed as reduction in cell viability after 72 hrs by MTT assay; format: functional, cell-based
BGC-823 = experiment: Antiproliferative activity against human BGC823 cells assessed as reduction in cell viability after 72 hrs by MTT assay; format: functional, cell-based; conditions: BGC-823, 72 h

Q: With `C=C(C)[C@@H]1CC[C@]2(COC(=O)c3nc(C)c(C)nc3C)CC[C@]3(C)[C@H](CC[C@@H]4[C@@]5(C)CC[C@H](OC(=O)CN(C)C(=O)CCNC(C)=O)C(C)(C)[C@@H]5CC[C@]43C)[C@@H]12` as the molecule, how does the IC50 (HT-29) read?
A: 12.5 µM

Q: And the IC50 (HepG2)?
A: 11 µM

Q: And the IC50 (MDCK)?
A: 18.6 µM

Q: What about the IC50 (HeLa) of the same molecule?
A: 4.13 µM

Q: What about the IC50 (BGC-823) of the same molecule?
A: 6.94 µM

Q: For `C=C(C)[C@@H]1CC[C@]2(COC(=O)c3nc(C)c(C)nc3C)CC[C@]3(C)[C@H](CC[C@@H]4[C@@]5(C)CC[C@H](OC(=O)[C@@H](N)CC(C)C)C(C)(C)[C@@H]5CC[C@]43C)[C@@H]12`, which IC50 (HT-29) is on record?
A: > 20 µM

Q: What about the IC50 (HepG2) of the same molecule?
A: > 20 µM

Q: What about the IC50 (MDCK) of the same molecule?
A: > 20 µM

Q: And the IC50 (HeLa)?
A: > 20 µM

Q: What about the IC50 (BGC-823) of the same molecule?
A: > 20 µM

Q: Which IC50 (HT-29) does the source give for `C=C(C)[C@@H]1CC[C@]2(COC(=O)c3nc(C)c(C)nc3C)CC[C@]3(C)[C@H](CC[C@@H]4[C@@]5(C)CC[C@H](OC(=O)[C@@H](N)[C@@H](C)CC)C(C)(C)[C@@H]5CC[C@]43C)[C@@H]12` here?
A: 16.6 µM

Q: What about the IC50 (HepG2) of the same molecule?
A: > 20 µM

Q: And the IC50 (MDCK)?
A: > 20 µM

Q: And the IC50 (HeLa)?
A: > 20 µM

Q: What about the IC50 (BGC-823) of the same molecule?
A: > 20 µM

Q: What does the source list for `C=C(C)[C@@H]1CC[C@]2(COC(=O)c3nc(C)c(C)nc3C)CC[C@]3(C)[C@H](CC[C@@H]4[C@@]5(C)CC[C@H](OC(=O)CN(C)C(=O)[C@@H]6CCCN6C(C)=O)C(C)(C)[C@@H]5CC[C@]43C)[C@@H]12`?
A: IC50 (HT-29): 9.71 µM; IC50 (HepG2): > 20 µM; IC50 (MDCK): > 20 µM; IC50 (HeLa): 10.5 µM; IC50 (BGC-823): 7.93 µM

Q: How did the IC50 (HT-29) turn out when `C=C(C)[C@@H]1CC[C@]2(COC(=O)c3nc(C)c(C)nc3C)CC[C@]3(C)[C@H](CC[C@@H]4[C@@]5(C)CC[C@H](OC(=O)[C@@H]6CCCN6C(=O)CNC(C)=O)C(C)(C)[C@@H]5CC[C@]43C)[C@@H]12` was run?
A: 14.7 µM

Q: And the IC50 (HepG2)?
A: 18.4 µM

Q: And the IC50 (MDCK)?
A: 18.9 µM

Q: And the IC50 (HeLa)?
A: 17.9 µM

Q: And the IC50 (BGC-823)?
A: 18.9 µM

Q: What does the source list for `C=C(C)[C@@H]1CC[C@]2(CO)CC[C@]3(C)[C@H](CC[C@@H]4[C@@]5(C)CC[C@H](O)C(C)(C)[C@@H]5CC[C@]43C)[C@@H]12` [BETULIN]?
A: IC50 (HT-29): > 20 µM; IC50 (HepG2): > 20 µM; IC50 (MDCK): > 20 µM; IC50 (HeLa): 12.2 µM; IC50 (BGC-823): > 20 µM

Q: With `C=C(C)[C@@H]1CC[C@]2(COC(=O)c3nc(C)c(C)nc3C)CC[C@]3(C)[C@H](CC[C@@H]4[C@@]5(C)CC[C@H](OC(=O)[C@@H](N)Cc6ccccc6)C(C)(C)[C@@H]5CC[C@]43C)[C@@H]12` as the molecule, how does the IC50 (HT-29) read?
A: > 20 µM

Q: What about the IC50 (HepG2) of the same molecule?
A: > 20 µM

Q: And the IC50 (MDCK)?
A: > 20 µM

Q: What about the IC50 (HeLa) of the same molecule?
A: > 20 µM

Q: And the IC50 (BGC-823)?
A: > 20 µM

Q: Which results are given for `C=C(C)[C@@H]1CC[C@]2(COC(=O)c3nc(C)c(C)nc3C)CC[C@]3(C)[C@H](CC[C@@H]4[C@@]5(C)CC[C@H](OC(=O)[C@H](C)N)C(C)(C)[C@@H]5CC[C@]43C)[C@@H]12`?
A: IC50 (HT-29): 9.29 µM; IC50 (HepG2): 10.1 µM; IC50 (MDCK): 18.5 µM; IC50 (HeLa): 9.22 µM; IC50 (BGC-823): 7.83 µM

Q: For `C=C(C)[C@@H]1CC[C@]2(COC(=O)c3nc(C)c(C)nc3C)CC[C@]3(C)[C@H](CC[C@@H]4[C@@]5(C)CC[C@H](OC(=O)[C@@H](N)C(C)C)C(C)(C)[C@@H]5CC[C@]43C)[C@@H]12`, which IC50 (HT-29) is on record?
A: > 20 µM

Q: What about the IC50 (HepG2) of the same molecule?
A: > 20 µM

Q: What about the IC50 (MDCK) of the same molecule?
A: > 20 µM

Q: What about the IC50 (HeLa) of the same molecule?
A: > 20 µM

Q: What about the IC50 (BGC-823) of the same molecule?
A: > 20 µM

Q: Which IC50 (HT-29) does the source give for `C=C(C)[C@@H]1CC[C@]2(COC(=O)c3nc(C)c(C)nc3C)CC[C@]3(C)[C@H](CC[C@@H]4[C@@]5(C)CC[C@H](OC(=O)[C@@H]6CCC(=O)N6)C(C)(C)[C@@H]5CC[C@]43C)[C@@H]12` here?
A: 15.3 µM

Q: What about the IC50 (HepG2) of the same molecule?
A: 16.5 µM

Q: And the IC50 (MDCK)?
A: 16.7 µM

Q: And the IC50 (HeLa)?
A: 19.4 µM

Q: And the IC50 (BGC-823)?
A: 8.62 µM

Q: Which IC50 (HT-29) does the source give for `C=C(C)[C@@H]1CC[C@]2(COC(=O)c3nc(C)c(C)nc3C)CC[C@]3(C)[C@H](CC[C@@H]4[C@@]5(C)CC[C@H](OC(=O)[C@@H]6CCCN6C(=O)[C@@H]6CCCN6C(C)=O)C(C)(C)[C@@H]5CC[C@]43C)[C@@H]12` here?
A: > 20 µM

Q: And the IC50 (HepG2)?
A: > 20 µM

Q: What about the IC50 (MDCK) of the same molecule?
A: > 20 µM

Q: What about the IC50 (HeLa) of the same molecule?
A: 11.1 µM

Q: What about the IC50 (BGC-823) of the same molecule?
A: > 20 µM

Q: Which results are given for `C=C(C)[C@@H]1CC[C@]2(COC(=O)c3nc(C)c(C)nc3C)CC[C@]3(C)[C@H](CC[C@@H]4[C@@]5(C)CC[C@H](OC(=O)CNC(=O)[C@@H]6CCCN6C(C)=O)C(C)(C)[C@@H]5CC[C@]43C)[C@@H]12`?
A: IC50 (HT-29): 12.3 µM; IC50 (HepG2): > 20 µM; IC50 (MDCK): 19.8 µM; IC50 (HeLa): 10.1 µM; IC50 (BGC-823): 8.15 µM

Q: `C=C(C)[C@@H]1CC[C@]2(COC(=O)c3nc(C)c(C)nc3C)CC[C@]3(C)[C@H](CC[C@@H]4[C@@]5(C)CC[C@H](OC(=O)CNC)C(C)(C)[C@@H]5CC[C@]43C)[C@@H]12` was tested. Which IC50 (HT-29) did it give?
A: 7.92 µM

Q: And the IC50 (HepG2)?
A: 5.93 µM

Q: And the IC50 (MDCK)?
A: 14.6 µM

Q: And the IC50 (HeLa)?
A: 7.88 µM

Q: And the IC50 (BGC-823)?
A: 8.23 µM

Q: For `C=C(C)[C@@H]1CC[C@]2(COC(=O)c3nc(C)c(C)nc3C)CC[C@]3(C)[C@H](CC[C@@H]4[C@@]5(C)CC[C@H](OC(=O)[C@@H]6CCCN6)C(C)(C)[C@@H]5CC[C@]43C)[C@@H]12`, which IC50 (HT-29) is on record?
A: 15 µM

Q: And the IC50 (HepG2)?
A: 19.6 µM

Q: What about the IC50 (MDCK) of the same molecule?
A: 17.6 µM

Q: What about the IC50 (HeLa) of the same molecule?
A: 17.2 µM

Q: What about the IC50 (BGC-823) of the same molecule?
A: 10.4 µM

Q: With `C=C(C)[C@@H]1CC[C@]2(COC(=O)c3nc(C)c(C)nc3C)CC[C@]3(C)[C@H](CC[C@@H]4[C@@]5(C)CC[C@H](OC(=O)CNC(=O)CNC(C)=O)C(C)(C)[C@@H]5CC[C@]43C)[C@@H]12` as the molecule, how does the IC50 (HT-29) read?
A: 11.2 µM

Q: What about the IC50 (HepG2) of the same molecule?
A: > 20 µM

Q: And the IC50 (MDCK)?
A: 14.5 µM

Q: And the IC50 (HeLa)?
A: > 20 µM

Q: What about the IC50 (BGC-823) of the same molecule?
A: 7.85 µM

Q: What does the source list for `C=C(C)[C@@H]1CC[C@]2(COC(=O)c3nc(C)c(C)nc3C)CC[C@]3(C)[C@H](CC[C@@H]4[C@@]5(C)CC[C@H](O)C(C)(C)[C@@H]5CC[C@]43C)[C@@H]12`?
A: IC50 (HT-29): 16.3 µM; IC50 (HepG2): 13.6 µM; IC50 (MDCK): > 20 µM; IC50 (HeLa): 18.5 µM; IC50 (BGC-823): 15 µM

Q: How did the IC50 (HT-29) turn out when `C=C(C)[C@@H]1CC[C@]2(COC(=O)c3nc(C)c(C)nc3C)CC[C@]3(C)[C@H](CC[C@@H]4[C@@]5(C)CC[C@H](OC(=O)CNC(=O)CCNC(C)=O)C(C)(C)[C@@H]5CC[C@]43C)[C@@H]12` was run?
A: > 20 µM

Q: What about the IC50 (HepG2) of the same molecule?
A: > 20 µM

Q: What about the IC50 (MDCK) of the same molecule?
A: 15.8 µM

Q: And the IC50 (HeLa)?
A: 6.72 µM

Q: What about the IC50 (BGC-823) of the same molecule?
A: 7.62 µM

Q: `C=C(C)[C@@H]1CC[C@]2(COC(=O)c3nc(C)c(C)nc3C)CC[C@]3(C)[C@H](CC[C@@H]4[C@@]5(C)CC[C@H](OC(=O)[C@@H]6CCCN6C(=O)CCNC(C)=O)C(C)(C)[C@@H]5CC[C@]43C)[C@@H]12` was tested. Which IC50 (HT-29) did it give?
A: > 20 µM

Q: And the IC50 (HepG2)?
A: > 20 µM

Q: What about the IC50 (MDCK) of the same molecule?
A: > 20 µM

Q: What about the IC50 (HeLa) of the same molecule?
A: 10.4 µM

Q: And the IC50 (BGC-823)?
A: > 20 µM

Q: How did the IC50 (HT-29) turn out when `C=C(C)[C@@H]1CC[C@]2(COC(=O)c3nc(C)c(C)nc3C)CC[C@]3(C)[C@H](CC[C@@H]4[C@@]5(C)CC[C@H](OC(=O)CN(C)C(=O)CNC(C)=O)C(C)(C)[C@@H]5CC[C@]43C)[C@@H]12` was run?
A: > 20 µM

Q: And the IC50 (HepG2)?
A: > 20 µM

Q: And the IC50 (MDCK)?
A: > 20 µM

Q: What about the IC50 (HeLa) of the same molecule?
A: 7.96 µM

Q: And the IC50 (BGC-823)?
A: 10.3 µM
